Experimental data from PMC8409973, “Synthesis, antiproliferative and antitrypanosomal activities, and DNA binding of novel 6-amidino-2-arylbenzothiazoles” (Journal of Enzyme Inhibition and Medicinal Chemistry, 2021).

Key:
poly (dAdT)2 = test: Thermal denaturation of p(dAdT)2; format: binding; details: r = [compound]/[polynucleotide] = 0.3, pH 7.0; error ±0.5 °C
Method: (§1) These solutions were used for measurements in an aqueous buffer (pH = 7, sodium cacodylate buffer, I = 0.05 mol dm^−3). Polynucleotides were purchased as noted: poly (dAdT)2 and calf thymus ctDNA (Sigma-Aldrich). Polynucleotides were dissolved in Na-cacodylate buffer, I = 0.05 mol dm^−3, pH = 7. The calf thymus ctDNA was additionally sonicated and filtered through a […]. Polynucleotide concentration was determined spectroscopically[50]^,[51] as the concentration of phosphates.
(§2) The UV/Vis spectra were recorded on a Varian Cary 100 Bio spectrophotometer using 1 cm path quartz cuvettes. Calibration experiments were performed at 25 °C and pH = 7 (I = 0.05 mol dm^−3, sodium cacodylate buffer). Absorption maxima and corresponding molar extinction coefficients (ε) of benzothiazole derivatives are given in Table S1 (Supplementary material). Thermal melting curves for DNA and their complexes with studied compounds were determined as previously described by following the absorption change at 260 nm as a function of temperature. The absorbance of the ligands was subtracted from every curve and the absorbance scale was normalised. Tm values are the midpoints of the transition curves determined from the maximum of the first derivative and checked graphically by the tangent method. The ΔTm values were calculated by subtracting Tm of the free nucleic acid from Tm of the complex. Every ΔTm value reported here was the average of at least two measurements. The error in ΔTm is ±0.5 °C.

[1] = system: CFPAC-1 (pancreatic adenocarcinoma); test: Proliferation assay (MTT, 72 h) on CFPAC-1; format: cell-based; details: Homo sapiens, CFPAC-1, 72 h
Method: (§3) Human cell lines SW620 (colorectal adenocarcinoma, metastatic), MCF-7 (human breast adenocarcinoma), CFPAC-1 (pancreatic adenocarcinoma), HeLa (cervical carcinoma), and HFF-1 (human foreskin fibroblasts) were obtained from the American Type Culture Collection (ATCC). Cells were cultured in a humidified atmosphere at 37 °C with 5% CO2. As a growth medium, Dulbecco’s modified Eagle medium (DMEM) was used with the addition of foetal bovine serum (10%), L-glutamine (2 mM), and antibiotics: streptomycin ([…]) and penicillin (100 U/ml).
(§4) Cells were seeded onto 96-well microtiter plates at a seeding density of 3000 cells/well for carcinoma cell lines, and 5000 cells/well for normal human fibroblasts. The next day, cells were treated with test agents at five different concentrations (0.01–100 µM) and further incubated for 72 h. […] 5-Fluorouracil (5-FU, 0.384 M fluorouracilum, Pliva 500 mg/10 ml) dissolved in physiological solution was used as a positive control. Following 72 h incubation, the MTT assay was performed and measured absorbances were transformed into a percentage of cell growth as described previously. Results were obtained from three independent experiments. IC50 values were calculated using linear regression analysis (FORECAST option taking into account the concentration range of two experimental points above and below IC50).

[2] = system: SW620 (colorectal adenocarcinoma, metastatic); test: Proliferation assay (MTT, 72 h) on SW620; format: cell-based; details: Homo sapiens, SW-620, SW620, 72 h
Method: as §3, §4

[3] = system: MCF-7 (human breast adenocarcinoma); test: Proliferation assay (MTT, 72 h) on MCF-7; format: cell-based; details: MCF7, MCF-7, 72 h
Method: as §3, §4

[4] = system: Bloodstream form T. b. brucei (strain 221); test: Antitrypanosomal screening (resazurin); format: cell-based; details: Trypanosoma brucei; for IC90: concentration that inhibited growth by 90%, mean ± SEM; for IC50: mean of triplicate ± SEM
Method: Resazurin (20 μl at 0.125 mg ml^−1) was added after 48 h, the plates were incubated for a further 16 h, and then read in a Spectramax plate reader, and data analysed using GraphPad Prism. Each drug was tested in triplicate.

[5] = system: L6 cells (a rat myoblast line); test: L6 cell proliferation (cytotoxicity, resazurin); format: cell-based; details: for IC50: 144 h, rat myoblast L6, 6 days; for SI IC50 (L6/Tb): SI = [IC50 L6 cells]/[IC50 T. brucei]
ctDNA [6] = test: Thermal denaturation of ctDNA; format: binding, calf; details: r = [compound]/[polynucleotide] = 0.3, pH 7.0; error ±0.5 °C
Method: as §1, §2

[7] = system: HFF-1 (human foreskin fibroblasts); test: Proliferation assay (MTT, 72 h) on normal fibroblasts HFF-1; format: cell-based; details: HFF-1 normal fibroblasts
Method: as §3, §4

[8] = system: HeLa (cervical carcinoma); test: Proliferation assay (MTT, 72 h) on HeLa; format: cell-based; details: Homo sapiens
Method: as §3, §4

calf thymus ctDNA = test: Fluorimetric titration with ctDNA; format: binding; details: for I/I0: fluorescence intensity of complex / starting intensity, ctDNA, pH 7.0; for LogKs: fluorescence titration with ctDNA, Scatchard, fixed n = 0.6, pH 7.0, sodium cacodylate I = 0.05 mol dm−3
Method: The calf thymus ctDNA was additionally sonicated and filtered through a […]. Polynucleotide concentration was determined spectroscopically[50]^,[51] as the concentration of phosphates. Fluorescence spectra were recorded on a Varian Cary Eclipse spectrophotometer at 25 °C using appropriate 1 cm path quartz cuvettes. […] In fluorimetric experiments, an excitation wavelength of λexc ≥300 nm was used to avoid the inner filter effect caused due to increasing absorbance of the polynucleotide. Emissions were determined in the range λem = 350–650 nm. Values for Ks were obtained by processing titration data using the Scatchard equation[52].

ctDNA [9] = test: CD titration of ctDNA; format: binding, calf; details: for induced CD (ICD) signal with ctDNA: CD titration, pH 7.0, λ > 300 nm; for binding mode to ctDNA: concluded from ICD, ΔTm and binding constants
Method: as §1
CD spectra were recorded on a JASCO J815 spectrophotometer in 1 cm path quartz cuvettes. CD parameters: range = 500–220 nm, data pitch = 2, standard sensitivity, scanning speed = 200 nm/min, accumulation = 3–5. Titrations were performed at 25 °C and pH = 7 (I = 0.05 mol dm^−3, sodium cacodylate buffer). CD experiments were done by adding portions of the compound stock solution into the polynucleotide solution.

Structure (SMILES)	ΔTm p(dAdT)2 (poly (dAdT)2)	IC50 [1]	IC50 [2]	IC50 [3]	IC90 [4]	IC50 [4]	IC50 [5]	ΔTm ctDNA (ctDNA [6])	IC50 [7]	IC50 [8]	I/I0 (calf thymus ctDNA)	LogKs (calf thymus ctDNA)	melting point	SI IC50 (L6/Tb) [5]	induced CD (ICD) signal with ctDNA (ctDNA [9])	binding mode to ctDNA (ctDNA [9])
CS(=O)(=O)O.c1ccc(-n2cc(-c3nc4ccc(C5=NCCN5)cc4s3)nn2)cc1 [14a, 6-(4,5-Dihydro-1H-imidazol-3-ium-2-yl)-2-(1-phenyl-1H-1,2,3-triazole-4-yl)benzothiazole methanesulfonate]	2.6 °C	450 ± 190 nM	250 ± 160 nM	520 ± 260 nM	530 ± 30 nM	400 ± 20 nM	< 2000 nM	0.7 °C	120 ± 10 nM	670 ± 60 nM	0.54	5.6	–	–	–	–
COc1ccc(-n2cc(COc3nc4ccc(C5=NCCCN5)cc4s3)nn2)cc1.CS(=O)(=O)O [12c, 6-(3,4,5,6-Tetrahydropyrimidin-1-ium-2-yl)-2-{[1-(4-methoxyphenyl)-1H-1,2,3-triazol-4-yl]methoxy}benzothiazole methanesulfonate]	–	3310 ± 600 nM	5220 ± 1240 nM	3460 ± 450 nM	1180 ± 20 nM	900 ± 50 nM	2920 ± 260 nM	–	460 ± 270 nM	2640 ± 460 nM	–	–	259 to 264 °C	3.2	–	–
CS(=O)(=O)O.c1ccc(Cn2cc(-c3nc4ccc(C5=NCCN5)cc4s3)nn2)cc1 [14d, 6-(4,5-Dihydro-1H-imidazol-3-ium-2-yl)-2-(1-benzyl-1H-1,2,3-triazole-4-yl)benzothiazole methanesulfonate]	–	8710 ± 3740 nM	850 ± 610 nM	1760 ± 1170 nM	8660 ± 200 nM	3680 ± 220 nM	6640 ± 530 nM	–	110 ± 10 nM	820 ± 10 nM	–	–	236 to 240 °C	1.8	–	–
COc1ccc(-n2cc(COc3nc4ccc(C5=NCCN5)cc4s3)nn2)cc1.CS(=O)(=O)O [11c, 6-(4,5-Dihydro-1H-imidazol-3-ium-2-yl)-2-{[1-(4-methoxyphenyl)-1H-1,2,3-triazol-4-yl]methoxy}benzothiazole methanesulfonate]	–	2060 ± 700 nM	500 ± 160 nM	860 ± 970 nM	230 ± 50 nM	190 ± 40 nM	< 2000 nM	–	240 ± 130 nM	2530 ± 10 nM	–	–	253 to 257 °C	–	–	–
CS(=O)(=O)O.Clc1ccc(-n2cc(COc3nc4ccc(C5=NCCCN5)cc4s3)nn2)cc1 [12b, 6-(3,4,5,6-Tetrahydropyrimidin-1-ium-2-yl)-2-[(1-(4-Chlorophenyl)-1H-1,2,3-triazol-4-yl]methoxy)benzothiazole methanesulfonate]	–	3550 ± 810 nM	660 ± 210 nM	3910 ± 1190 nM	1190 ± 20 nM	910 ± 80 nM	2320 ± 180 nM	–	240 ± 90 nM	2810 ± 580 nM	0.31	7.0	220 to 224 °C	–	positive induced CD spectra	minor groove binding mode
CS(=O)(=O)O.Clc1ccc(-n2cc(-c3nc4ccc(C5=NCCN5)cc4s3)nn2)cc1 [14b, 6-(4,5-Dihydro-1H-imidazol-3-ium-2-yl)-2-[1-(4-chlorophenyl)-1H-1,2,3-triazole-4-yl]benzothiazole methanesulfonate]	3.6 °C	2420 ± 60 nM	350 ± 130 nM	1770 ± 180 nM	480 ± 20 nM	320 ± 60 nM	< 2000 nM	2.2 °C	360 ± 180 nM	480 ± 10 nM	0.45	5.0	> 300 °C	–	–	–
COc1ccc(-n2cc(-c3nc4ccc(C5=NCCN5)cc4s3)nn2)cc1.CS(=O)(=O)O [14c, 6-(4,5-Dihydro-1H-imidazol-3-ium-2-yl)-2-[1-(4-methoxyphenyl)-1H-1,2,3-triazole-4-yl]benzothiazole methanesulfonate]	4.5 °C	480 ± 30 nM	360 ± 90 nM	540 ± 10 nM	490 ± 10 nM	310 ± 20 nM	< 2000 nM	0 °C	180 ± 10 nM	380 ± 100 nM	–	–	> 300 °C	–	–	–
N=C(N)c1ccc2nc(-c3ccc(OCc4cn(-c5ccc(Cl)cc5)nn4)cc3)sc2c1 [10b]	2.3 °C	–	3050 ± 820 nM	870 ± 180 nM	810 ± 40 nM	540 ± 130 nM	1460 ± 450 nM	2.7 °C	170 ± 130 nM	1240 ± 600 nM	0.12	6.6	–	–	small negative ICD signal	intercalation
